Reference: patent US20260248794A1, “METHODS AND MATERIALS FOR PROMOTING BONE GROWTH” (Mayo Foundation for Medical Education and Research, priority 2022, published 2026)
Several values for one entry are separate records, joined by “and”; a condition that tells them apart may be missing. Equal entries are not always repeated. Entries after “also recorded” stand apart in the source; their conditions may differ.

Key:
H3K27me3 in MC3T3 cells = test: Western blotting for H3K27me3 in MC3T3 cells treated with EED inhibitor; format: cell-based, murine; conditions: A-395 at 0.02-10 mM as printed, FIG. 5A
Description: (§1) MC3T3 sc4 murine calvarial osteoblasts were purchased from American Type Culture Collection and maintained in α-minimal essential medium without ascorbic acid (Gibco) containing 10% fetal bovine serum (Atlanta Biologicals), 100 units/mL penicillin, and 100 µg/mL streptomycin (Gibco).
MC3T3 cells (4,000 cells/cm^2) were plated in 6-well plates in maintenance medium. […] Cells were lysed in radioimmunoprecipitation buffer (150 mm NaCl, 50 mm Tris, pH 7.4, 1% sodium deoxycholate, 0.1% sodium dodecyl sulfate, 1% Triton X-100) supplemented with protease inhibitor mixture (Sigma) and phenylmethylsulfonyl fluoride (Sigma). Lysates were cleared by centrifugation. Protein concentrations were determined by the DC Protein Assay (Bio-Rad). Proteins were resolved by SDS-PAGE and transferred to polyvinylidene difluoride membranes. After blocking in 5% nonfat dry milk for 45 minutes at room temperature, primary antibodies were added overnight at 4° C., followed by secondary antibodies for 1 hour at room temperature. Proteins were visualized using an ECL Prime detection kit.

MC3T3 cells = test: Osteogenic differentiation of MC3T3 cells (RT-qPCR of osteogenic genes, alizarin red staining); format: cell-based, murine; conditions: differentiating MC3T3 cells; FIG. 5B-5F
Description: as §1
For osteogenic differentiation, MC3T3s were seeded in respective maintenance medium at a density of 10,000 cells/cm^2. Next day, osteogenic medium supplemented with vehicle, GSK126 (Xcess Biociences Inc.) or A-395 (Sigma) was added to the cells. Osteogenic medium for MC3T3 cells consisted of 50 μg/mL ascorbic acid (Sigma) and 4 mm β-glycerol phosphate (Sigma). Three days later, old medium was replaced with a fresh batch of osteogenic medium supplemented with vehicle, GSK126, or A-395. On day 6 of differentiation, fresh osteogenic medium without supplements was added and replenished every 2 to 3 days. On day 14, cells were fixed in 10% neutral buffered formalin and stained with 2% alizarin red to visualize calcium deposition.
Total RNA was isolated using the Direct-zol™ RNA kit (Zymo Research) and quantified using the NanoDrop 2000 spectrophotometer (Thermo Fischer Scientific). RNA was then reverse transcribed into cDNA by the SuperScript III First-Strand Synthesis System (Invitrogen). Transcript levels were then measured using the 2^ΔΔct method and normalized GAPDH (set at 100), a housekeeping gene.

OI mice = test: μCT analysis of femurs of OI mice treated with A-395 for 5 weeks; format: in vivo
Description: (§2) Five-week-old OI mice (mice harboring the Col1a2 c.2098G>T p.Gly700Cys allele […]) were subcutaneously injected with DMSO (vehicle) or EED inhibitor A-395 (Sigma) at concentrations of either 100 mg/kg or 300 mg/kg twice weekly for 5 weeks.
Femurs of injected mice were scanned by μCT Skyscan 1076 (Brunker) at the maximal potencial 60 kV and 167 μA with 0.25 mm thick aluminum filter and at the voxel resolution of 9 μm. The μCT scans were performed over 360° of total rotation with each angular rotation step of 0.7°. […] The trabecular region of interest were selected with reference to the growth plate. The 2D images were created using CTAn siftware package (Skyscan). The 3D μCT models of each femur were created using a 3D reconstruction software package (Skyscan).
(§3) 5-week-old OI mice were treated twice weekly with a subcutaneous injection of either vehicle (DMSO) or EED inhibitor A-395 had concentrations of 300 mg/kg or 100 mg/kg. These mice were treated for five weeks and then analyzed for changes in bone structure.

[1] = Weight, femur length and toxicity in OI mice treated with A-395 for 5 weeks; format: in vivo; conditions: for Weigh at 3 weeks: 3 weeks of age, prior to treatment; for Weight at 5 weeks: start of treatment; for Weight at 10 weeks: individual OI mice
Description: as §2, §3
OI mice were weighed at 3 weeks of age prior to treatment, at the start of treatment at 5 weeks, and after 5 weeks of treatment with vehicle (Veh), 300 mg/kg (300), or 100 mg/kg (100) of A-395.

G610C mice [2] = test: μCT analysis of G610C mice treated with A-395 for 3 weeks; format: in vivo; conditions: male G610C mice
Description: (§4) G610C mice were treat with the EED inhibitor A-395. […] The dose of A-395 was lowered to see if that improved the health of the mice and bone formation. Three 5-week-old male G610C mice were treated with DMSO control or either 50 mg/kg or 100 mg/kg A-395 twice a week by subcutaneous injection for 3 weeks.

G610C mice [3] = test: Three-point bending of G610C mice treated with A-395 for 3 weeks; format: in vivo; conditions: male G610C mice
Excerpt: Three-point bend fixture was mounted on a servohydrauilic mechanical testing frame (#312, MTS Systems) instrumented with a 100-N capacity load cell (#3397-25, Leebow Products). Femurs were be mounted on supports spanning 8 mm. Point loading was applied to the femur mid-shaft allowing the bones to flex about an axis aligned with the medial-lateral line. Loading was applied under displacement control at a rate of 20 mm/minute until fracture. Force and displacement data were be sampled at 256 Hz. Peak load and peak displacement was be quantified. The stiffness was be calculated from the slope of the linear region of the force displacement curve.
as §4

[4] = 100 mg/kg, vs vehicle, 100 mg/kg
[5] = 300 mg/kg, vs vehicle, 300 mg/kg
[6] = individual OI mice of the 100 mg/kg group, in g (unit assumed)
[7] = individual OI mice of the 300 mg/kg group, in g (unit assumed)

CN(C)C1CN(C2CCc3cccc(F)c32)CC1c1ccc(N2CCN(S(C)(=O)=O)CC2)cc1 (centres unmarked) [A-395, 1-(7-fluoro-2,3-dihydro-1H-inden-1-yl)-N,N-dimethyl-4-[4-(4-methylsulfonylpiperazin-1-yl)phenyl]pyrrolidin-3-amine]
H3K27me3 (western blotting) (H3K27me3 in MC3T3 cells): reduced H3K27me3 in a concentration-dependent manner | osteogenic differentiation (osteogenic genes, alizarin red staining) (MC3T3 cells): stimulates osteogenesis; also recorded: more potent at stimulating osteogenic differentiation | bone surface density (OI mice; 100 mg/kg): increase | bone surface to volume ratio (OI mice; 100 mg/kg): decrease | intersection surface (OI mice; 100 mg/kg): no change | trabecular number (OI mice; 100 mg/kg): increase | trabecular pattern (OI mice; 100 mg/kg): decrease | trabecular thickness (OI mice; 100 mg/kg): increase | bone formation within the femurs (μCT) (OI mice; 100 mg/kg SC twice weekly): robust bone formation | bone surface (OI mice; 100 mg/kg, vs vehicle): increase | trabecular bone (OI mice; 100 mg/kg, vs vehicle): increase in trabecular bone | bone volume (OI mice; [4]): increased | percent bone per volume (OI mice; [4]): increased | tissue surface (OI mice; [4]): increased | tissue volume (OI mice; [4]): increased | bone surface to volume ratio (OI mice; 300 mg/kg): unchanged | intersection surface (OI mice; 300 mg/kg): down | trabecular number (OI mice; 300 mg/kg): decrease | trabecular pattern (OI mice; 300 mg/kg): slight decrease | trabecular thickness (OI mice; 300 mg/kg): slight decrease | bone mineralization (μCT) (OI mice; 300 mg/kg SC twice weekly): loss of bone mineralization | bone density (OI mice; 300 mg/kg, FIG. 11A): down | trabecular bone (OI mice; 300 mg/kg, vs vehicle): loss of trabecular bone | bone surface (OI mice; [5]): decrease and down | bone volume (OI mice; [5]): decreased | percent bone per volume (OI mice; [5]): decreased | tissue volume (OI mice; [5]): increased | toxicity to the mouse ([1]; OI mice, 300 mg/kg SC twice weekly, 5 weeks): toxic | weight (change vs vehicle) ([1]; OI mice, 300 mg/kg or 100 mg/kg, after 5 weeks of treatment, vs vehicle): no significant changes | Weigh at 3 weeks [1, 6]: 10.5 and 10.2 and 9.6 | Weight at 5 weeks [1, 6]: 21.3 and 21.6 and 19.9 | Weigh at 3 weeks [1, 7]: 11.1 and 11.9 and 14.0 | Weight at 5 weeks [1, 7]: 20.9 and 22.6 and 24.0 | Weight at 10 weeks ([1]; 100 mg/kg, after 5 weeks of treatment, 100 mg/kg): 26.5 (2×) and 28.0 | Weight at 10 weeks ([1]; 300 mg/kg, after 5 weeks of treatment, 300 mg/kg, in g (unit assumed)): 26.6 and 27.8 and 29.0 | bone formation (μCT) (G610C mice [2]; 50 mg/kg SC twice a week): increase in bone formation | bone formation (μCT) (G610C mice [2]; 100 mg/kg SC twice a week): increase in bone formation | bone (μCT) vs controls (G610C mice [2]; 300 mg/kg SQ twice a week): less bone than controls | health of treated mice at end of protocol (G610C mice [2]; 300 mg/kg SQ twice a week): losing weight and appeared sickly | stiffness (three-point bending) (G610C mice [3]; 50 mg/kg SC twice a week): improved stiffness | stiffness (three-point bending) (G610C mice [3]; 100 mg/kg SC twice a week): improved stiffness
